Results from patent publication US9765075B2, “Substituted bridged urea analogs as sirtuin modulators” (GLAXOSMITHKLINE LLC, priority 2013, dated 2017).
Like-named read-outs stand apart in the source and are kept apart here.

Target: T1, SIRT1 (Homo sapiens, UniProt Q96EB6)
T1 sequence (Q96EB6 1-747): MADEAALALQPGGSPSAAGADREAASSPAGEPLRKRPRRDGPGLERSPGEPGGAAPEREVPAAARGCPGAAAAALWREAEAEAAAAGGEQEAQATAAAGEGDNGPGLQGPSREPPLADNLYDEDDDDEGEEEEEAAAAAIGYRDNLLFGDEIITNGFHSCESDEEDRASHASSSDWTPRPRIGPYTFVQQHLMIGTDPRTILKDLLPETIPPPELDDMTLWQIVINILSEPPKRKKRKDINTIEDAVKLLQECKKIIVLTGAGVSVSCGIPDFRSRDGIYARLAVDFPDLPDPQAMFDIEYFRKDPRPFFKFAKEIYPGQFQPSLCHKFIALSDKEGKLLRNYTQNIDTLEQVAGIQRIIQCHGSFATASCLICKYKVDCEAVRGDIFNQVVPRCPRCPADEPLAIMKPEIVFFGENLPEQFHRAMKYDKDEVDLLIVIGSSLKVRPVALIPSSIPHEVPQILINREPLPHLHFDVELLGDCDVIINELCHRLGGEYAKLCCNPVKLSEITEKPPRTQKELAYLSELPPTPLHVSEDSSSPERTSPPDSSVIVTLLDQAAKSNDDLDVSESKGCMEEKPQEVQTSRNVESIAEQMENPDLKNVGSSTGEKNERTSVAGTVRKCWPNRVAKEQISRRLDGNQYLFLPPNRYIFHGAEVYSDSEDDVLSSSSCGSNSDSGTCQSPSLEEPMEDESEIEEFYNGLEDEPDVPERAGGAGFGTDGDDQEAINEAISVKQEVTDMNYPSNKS
Assay: Trp mass spectrometry assay (SIRT1 activation)
Assay type: biochemical
Conditions: for Emax: percent maximum fold activation of SIRT1, read-out: Tryp % Fold Act
Method in brief: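 Activation is expressed as EC1.5, the concentration raising activity 50% above DMSO control, and as maximum percent of control. Mass-spec readout was OAADPR or deacetylated Trp peptide after a formic-acid-quenched 25-min, 25 °C reaction: 10 nM bacterially expressed His-SIRT1, 0.5 μM acetyl-p53-derived peptide, 120 μM NAD+, pH 7.5 HEPES with […].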

[1] = concentration of test compound that results in 150% activation of SIRT1, Trp peptide substrate
[2] = Trp mass spectrometry assay, EC1.5 = concentration of test compound that results in 150% activation of SIRT1
[3] = Trp mass spectrometry assay, EC1.5 = concentration giving 150% activation of SIRT1

Compound | Emax (Trp mass spectrometry assay) [%] | Tryp AVG EC1.5 (μM) [1] | Emax (Trp peptide substrate) [%] | Tryp AVG EC1.5 (μM) [2] | Tryp AVG EC1.5 (μM) [3]
O=C(Nc1ccncc1F)N1c2nc(-c3cccc(Cl)c3)ccc2N2CC[C@H]1C2 [Example 24] | ≥ 150 | – | – | – | –
N#Cc1cccc(-c2ccc3c(n2)N(C(=O)Nc2cncc(F)c2)[C@H]2CCCN3C2)c1 [Example 353] | – | A (EC1.5<1 μM) | ≥ 150 | – | –
CN(C)c1cccc(-c2ccc3c(n2)N(C(=O)Nc2ccc(F)cn2)[C@H]2CCCN3C2)c1 [Example 384] | – | B (EC1.5 1-25 μM) | ≥ 150 | – | –
Cc1csc(NC(=O)N2c3nc(N4CCCC(C(F)(F)F)C4)ccc3N3CC[C@H]2C3)n1 (stereo partly drawn) [Example 214] | ≥ 150 | – | – | A (EC1.5<1 μM) | –
O=C(Nc1cnccn1)N1c2nc(-c3cncc(F)c3)ccc2N2CCC1CC2 [Example 555] | – | B (EC1.5 1-25 μM) | ≥ 150 | – | –
Cc1nc(NC(=O)N2c3nc(-c4ccccc4C#N)ccc3N3CCC[C@H]2C3)sc1C [Example 476] | – | B (EC1.5 1-25 μM) | ≥ 150 | – | –
O=C(Nc1ccncn1)N1c2nc(N3CCCN(CC(F)(F)F)CC3)ccc2N2CCC[C@H]1C2 [Example 491] | – | A (EC1.5<1 μM) | ≥ 150 | – | –
N#Cc1cncc(-c2ccc3c(n2)N(C(=O)Nc2ccncn2)[C@H]2CCCN3C2)c1 [Example 558] | – | B (EC1.5 1-25 μM) | ≥ 150 | – | –
Cn1ncc2cc(NC(=O)N3c4nc(-c5cccc(C#N)c5)ccc4N4CC[C@H]3C4)ccc21 [Example 184] | ≥ 150 | – | – | A (EC1.5<1 μM) | –
COc1cccc(-c2ccc3c(n2)N(C(=O)Nc2ccc(F)cn2)[C@@H]2CCN3C2)c1 [Example 205] | ≥ 150 | – | – | B (EC1.5 1-25 μM) | –
N#Cc1ccccc1-c1ccc2c(n1)N(C(=O)Nc1cnccn1)[C@H]1CCCN2C1 [Example 450] | – | B (EC1.5 1-25 μM) | ≥ 150 | – | –
O=C(Nc1cncc(F)c1)N1c2nc(-c3cccc(Cl)c3)ccc2N2CC[C@@H]1C2 [Example 218] | – | A (EC1.5<1 μM) | ≥ 150 | – | –
NCCCc1cc(NC(=O)N2c3nc(-c4cccc(C(F)(F)F)c4)ccc3N3CC[C@H]2C3)cc(-c2cnco2)c1 [Example 770] | ≥ 150 | – | – | – | A (EC1.5<1 μM)
CN(C)c1cccc(-c2ccc3c(n2)N(C(=O)Nc2cnccn2)[C@@H]2CCCN3C2)c1 [Example 266] | – | B (EC1.5 1-25 μM) | ≥ 150 | – | –
O=C(Nc1cc(-c2cnco2)ccn1)N1c2nc(-c3cccc(Cl)c3)ccc2N2C[C@@H](O)[C@H]1C2 [Example 685] | ≥ 150 | – | – | – | B (EC1.5 1-25 μM)
O=C(Nc1ccc(F)cn1)N1c2nc(-c3cncc(Cl)c3)ccc2N2CCC[C@H]1C2 [Example 401] | – | A (EC1.5<1 μM) | ≥ 150 | – | –
O=C(Nc1cccc(-c2cnco2)n1)N1c2nc(-c3cccc(C(F)(F)F)c3)ccc2N2C[C@@H](O)[C@H]1C2 [Example 698] | ≥ 150 | – | – | – | A (EC1.5<1 μM)
Cn1cc(NC(=O)N2c3nc(-c4cccc(N5CCCC5)c4)ccc3N3CC[C@H]2C3)cn1 [Example 199] | ≥ 150 | – | – | B (EC1.5 1-25 μM) | –
NCCCCCC(=O)NCc1cccc(NC(=O)N2c3nc(-c4cccc(C(F)(F)F)c4)ccc3N3CCC[C@H]2C3)c1 [Example 756] | ≥ 150 | – | – | – | A (EC1.5<1 μM)
O=C(Nc1ccncc1F)N1c2nc(N3CCCC(C(F)(F)F)C3)ccc2N2CCC[C@H]1C2 (stereo partly drawn) [Example 291] | – | B (EC1.5 1-25 μM) | ≥ 150 | – | –
O=C(Nc1ccccn1)N1c2nc(-c3cncc(Cl)c3)ccc2N2CCC1CC2 [Example 551] | – | B (EC1.5 1-25 μM) | ≥ 150 | – | –
CCn1ncc2c(NC(=O)N3c4nc(-c5cccc(C(F)(F)F)c5)ccc4N4CC[C@H]3C4)cccc21 [81 (9)] | ≥ 150 | – | – | A (EC1.5<1 μM) | –
O=C(Nc1cnccn1)N1c2nc(-c3cccc(N4CCC(F)(F)C4)c3)ccc2N2CC[C@H]1C2 [Example 239] | – | A (EC1.5<1 μM) | ≥ 150 | – | –
N#Cc1ccccc1-c1ccc2c(n1)N(C(=O)Nc1cncc(F)c1)[C@H]1CCCN2C1 [Example 439] | – | B (EC1.5 1-25 μM) | ≥ 150 | – | –
Cc1ccc(-c2cccc(NC(=O)N3c4nc(-c5cccc(C(F)(F)F)c5)ccc4N4CC[C@H]3C4)c2)cc1C [Example 619] | – | C (EC1.5>25 μM) | < 150 | – | –
O=C(CCCC[C@@H]1SC[C@@H]2NC(=O)N[C@@H]21)NCCCCCC(=O)NCc1cn(-c2cccc(NC(=O)N3c4nc(-c5cccc(C(F)(F)F)c5)ccc4N4CC[C@H]3C4)c2)nn1 [Example 607] | – | A (EC1.5<1 μM) | – | – | –
O=C(C1CC1)N1CCC(c2cccc(NC(=O)N3c4nc(-c5cccc(C(F)(F)F)c5)ccc4N4CC[C@H]3C4)c2)C1 (stereo partly drawn) [Example 637] | ≥ 150 | – | – | – | A (EC1.5<1 μM)

Other lines, results leading:

Emax (Trp mass spectrometry assay) [%] | Tryp AVG EC1.5 (μM) [1] | Emax (Trp peptide substrate) [%] | Tryp AVG EC1.5 (μM) [2] | Tryp AVG EC1.5 (μM) [3] | Compound
– | A (EC1.5<1 μM) | ≥ 150 | – | – | Cc1cc(-c2ccc3c(n2)N(C(=O)Nc2cncc(C)n2)[C@H]2CCN3C2)ccn1 [Example 503]
≥ 150 | – | – | A (EC1.5<1 μM) | – | N#Cc1cccc(-c2ccc3c(n2)N(C(=O)Nc2ccncn2)[C@H]2CCN3C2)c1 [Example 181]
– | B (EC1.5 1-25 μM) | ≥ 150 | – | – | COc1cc(NC(=O)N2c3nc(-c4cccc(N5CCC(C(F)(F)F)C5)c4)ccc3N3CC[C@H]2C3)ncn1 (stereo partly drawn) [Example 320]
≥ 150 | – | – | – | A (EC1.5<1 μM) | C#CCNc1nccc(NC(=O)N2c3nc(-c4cccc(C5(C(F)(F)F)N=N5)c4)ccc3N3CC[C@H]2C3)n1 [Example 804]
≥ 150 | – | – | – | A (EC1.5<1 μM) | O=C(Nc1cccnn1)N1c2nc(-c3cccc(Cl)c3)ccc2N2CC[C@H]1C2 [Example 822]
≥ 150 | – | – | A (EC1.5<1 μM) | – | COc1cc(NC(=O)N2c3nc(-c4ccnc(C(F)(F)F)c4)ccc3N3CC[C@H]2C3)ncn1 [Example 133]
≥ 150 | – | – | – | – | Cc1csc(NC(=O)N2c3nc(-c4cccc(C(F)(F)F)c4)ccc3N3CC[C@H]2C3)n1 [Example 56]
– | B (EC1.5 1-25 μM) | ≥ 150 | – | – | O=C(Nc1ccncn1)N1c2nc(-c3cccc(C(F)(F)F)n3)ccc2N2CC[C@H]1C2 [Example 337]
< 150 | – | – | – | – | CCc1cccc(C)c1NC(=O)N1c2nc(-c3cccc(C(F)(F)F)c3)ccc2N2CC[C@H]1C2 [Example 69]
≥ 150 | – | – | – | B (EC1.5 1-25 μM) | COc1cc(NC(=O)N2c3nc(-c4cccc(Cl)c4)ccc3N3C[C@@H](O)[C@H]2C3)ncn1 [Example 679]
– | A (EC1.5<1 μM) | ≥ 150 | – | – | O=C(Nc1cnccn1)N1c2nc(-c3ccc(Cl)c(Cl)c3)ccc2N2CC[C@H]1C2 [Example 461]
≥ 150 | – | – | – | – | O=C(Nc1ccncn1)N1c2nc(-c3cccc(C(F)(F)F)c3)ccc2N2CCC[C@H]1C2 [Example 29]
≥ 150 | – | – | – | – | Cn1ccc(NC(=O)N2c3nc(-c4cccc(C(F)(F)F)c4)ccc3N3CC[C@H]2C3)n1 [Example 25]
≥ 150 | – | – | A (EC1.5<1 μM) | – | O=C(Nc1nc2ccccc2s1)N1c2nc(-c3cccc(C(F)(F)F)c3)ccc2N2CC[C@H]1C2 [Example 90]
– | B (EC1.5 1-25 μM) | ≥ 150 | – | – | O=C(Nc1cnccn1)N1c2nc(-c3ccnc(N4CC[C@@H](F)C4)c3)ccc2N2CC[C@H]1C2 [Example 462]
≥ 150 | – | – | A (EC1.5<1 μM) | – | O=C(Nc1cnccn1)N1c2nc(-c3cccc(OC(F)(F)F)c3)ccc2N2CC[C@H]1C2 [Example 164]
– | A (EC1.5<1 μM) | ≥ 150 | – | – | O=C(Nc1ccc(-n2cncn2)cc1)N1c2nc(-c3cccc(C(F)(F)F)c3)ccc2N2CC[C@H]1C2 [Example 580]
– | A (EC1.5<1 μM) | ≥ 150 | – | – | O=C(Nc1cnccn1)N1c2nc(-c3ccnc(N4CC[C@H](F)C4)c3)ccc2N2CC[C@H]1C2 [Example 436]
≥ 150 | – | – | B (EC1.5 1-25 μM) | – | O=C(Nc1ccncn1)N1c2nc(-c3cccc(C(F)(F)F)c3)ccc2N2CC[C@@H]1C2 [Example 202]
≥ 150 | – | – | A (EC1.5<1 μM) | – | O=C(Nc1cncc(F)c1)N1c2nc(-c3cccc(OC(F)(F)F)c3)ccc2N2CC[C@H]1C2 [Example 174]
– | C (EC1.5>25 μM) | < 150 | – | – | Cc1ccncc1-c1ccc2c(n1)N(C(=O)Nc1ccncn1)[C@H]1CCCN2C1 [Example 518]
